Data set [1] can be described thus: Pharmacokinetics in plasma after oral administration to ICR mice. The format is in vivo. To be noted: oral 10 mg/kg, plasma. How it is done: Pharmacokinetic parameters may include the maximum plasma concentration (Cmax), the time to reach the maximum plasma concentration (Tmax), the area under the plasma concentration-time curve (AUCinf), and a half-life (t1/2).
Example Compound 27 was orally administered to ICR mice at a dose of 10 mg/kg. Drug concentrations in the plasma of mice were measured by HPLC-MS/MS spectroscopy 0.5, 1, 2, 4, 8, or 24 hours after administration.
The comparative example compound was orally administered to ICR mice at a dose of 10 mg/kg. The drug concentrations in the plasma of the mice were measured by HPLC-MS/MS 0.5, 1, 2, 4, 8, or 24 hours after administration.

Data set [2] concerns retinal epithelial cells (ARPE-19). Briefly: Protective effect against cell death due to RSL3 (LDH release), ARPE-19. It is filed as cell-based. To be noted: Homo sapiens, RSL3 0.3 μM, 24 hours. As for the experimental part: (§1) To confirm cell death protection effects on cardiac cells, adrenal medullary cells, renal fibroblasts, retinal epithelial cells, lung epithelial cells, renal proximal tubular epithelial cells, hippocampal neurons and fibroblasts, each type of cells were seeded at 4×10^3 to 1.2×10^4 cells/well in a 96-well plate and cultured for 18 to 24 hours. The example compounds were diluted to have the final concentration of 0.001, 0.003, 0.01, 0.3, 1, 3, and 10 μM, respectively, and then added to different wells and cultured for 15 to 20 minutes. […] To confirm the cell death protection effect of the example compounds, the degree of extracellular secretion of lactate dehydrogenase (LDH) was measured using a cytotoxicity LDH assay kit [Dojindo; CK12]. Briefly, at the end of 24-hour treatment of each type of cells with RSL3, 70 μL of the supernatant was taken from the 96-well plate where the cells were cultured and transferred to a new 96-well plate. The assay buffer included in the kit was added at 70 μL/well (equal to that of the sample) and the plate was covered with foil to block light and allowed to react for 15 to 20 minutes at room temperature. While observing a color change of the sample, 35 µL/well of a stop solution was added, an absorbance at 490 nm was measured using an iD3 spectrophotometer, and an EC50 value was calculated.
(In general: Release of lactate dehydrogenase indicates damage to the cell membrane.)

The subject of data set [3] is hippocampal neurons (HT-22). Briefly: Protective effect against cell death due to RSL3 (LDH release), HT-22. It is filed as cell-based. To be noted: Mus musculus, RSL3 0.3 μM, 24 hours. As for the experimental part: as §1
The subject of data set [4] is fibroblasts (NIH/3T3). Briefly: Protective effect against cell death due to RSL3 (LDH release), NIH/3T3. The format is cell-based. The note with it: Mus musculus, NIH3T3, RSL3 3 μM, 24 hours. How it is done: as §1
Data set [5] relates to renal fibroblasts (NRK-49F). Briefly: Protective effect against cell death due to RSL3 (LDH release), NRK-49F. The format is cell-based. To be noted: Rattus norvegicus, RSL3 3 μM, 24 hours. As for the experimental part:
as §1

The subject of data set [6] is cardiac cells (H9C2). Description: Protective effect against t-BHP-induced cell death in cardiac cells (LDH release). The format is cell-based. The note with it: Rattus norvegicus, t-BHP 400 PM, 2 hours, read-out: EC50, protective effect against cell death due to t-BHP induction. How it is done:
To confirm a protective effect on cardiac cells, H9C2 cells were seeded at 1.5×10^4 cells/well in a 96-well plate and cultured for 24 hours. The example compounds were diluted to have the final concentration of 0.001, 0.01, 0.03, 0.1, 0.3, 1, 3, 10, and 30 PM, respectively, and then added to different wells, and the resulting cells were cultured for 15 to 20 minutes. Tert-butyl hydroperoxide (t-BHP) was treated to have the final concentration of 400 PM, and the resulting cells were cultured for 2 hours. To confirm the cell death protection effect of each compound, the degree of extracellular secretion of lactate dehydrogenase (LDH) was measured using a cytotoxicity LDH assay kit [Dojindo; CK12]. Briefly, after 2 hours of t-BHP treatment on the cells, 70 μL of the supernatant was taken from the 96-well plate where the cells were cultured and transferred to a new 96-well plate. The assay buffer included in the kit was added at 70 μL/well (equal to that of the sample) and the plate was covered with foil to block light and allowed to react for 15 minutes at room temperature. While observing a color change of each sample, 35 μL/well of a stop solution was added, an absorbance at 490 nm was measured using an iD3 spectrophotometer, and an EC50 value was calculated.

The test system of data set [7] is adrenal medullary cells (PC-12). Description: Protective effect against cell death due to RSL3 (LDH release), PC-12. The format is cell-based. To be noted: Rattus norvegicus, RSL3 0.3 μM, 24 hours. How it is done: as §1
Data set [8] concerns cardiac cells (H9C2). Description: Protective effect against cell death due to RSL3 (LDH release), H9C2. It is filed as cell-based. To be noted: Rattus norvegicus, RSL3 0.5 μM, 24 hours. As for the experimental part: as §1
For data set [9], the system named is lung epithelial cells (MLE-12). Briefly: Protective effect against cell death due to RSL3 (LDH release), MLE-12. The format is cell-based. To be noted: MLE12, RSL3 1 μM, 24 hours. How it is done: as §1
Data set [10] concerns renal proximal tubular epithelial cells (HK2). Briefly: Protective effect against cell death due to RSL3 (LDH release), HK2. It is filed as cell-based. The note with it: Epithelial cell, RSL3 0.3 μM, 24 hours. As for the experimental part: as §1

One may read the Cmax as the maximum level reached in the sampled fluid or tissue. The Tmax is the time at which the peak concentration occurs. As a reminder, the half-life is the time in which the quantity being followed falls by half. Regarding `OCc1cc(NC2CCCC2)c2[nH]c(-c3ccccc3)cc2c1` [Comparative Example, [7-(cyclopentylamino)-2-phenyl-1H-indol-5-yl]methanol, reference compound], in [1] (mouse), the Cmax is 2110 ng/mL, the Tmax amounted to 1 h and the half-life is 1.4 h. Further, in data set [1] (mouse, 0.5 hr), the concentration at 0.5 h was found to be 1640 ng/mL. The compound further yielded a concentration at 1 h in data set [1] (mouse, 1 hr) of 2110 ng/mL. Also, the concentration at 2 h in [1] (mouse, 2 hr) amounted to 1120 ng/mL. In data set [1] (mouse, 4 hr), this compound had a concentration at 4 h of 389 ng/mL. For the same compound, in [1] (mouse, 8 hr), the concentration at 8 h is 51 ng/mL. Besides, in data set [1], the AUCinf is on record as 5,459 ng · hr/mL and the area under the plasma concentration-time curve (AUCinf) was 5460 ng·h/mL.
As usually defined, the EC50 is the concentration that produces a half-maximal response. `O=C(NC1CC1)c1cc(NCc2ccncc2)c2[nH]c(-c3ccccc3)cc2c1` [Example 8, N-cyclopropyl-2-phenyl-7-((pyridin-4-ylmethyl)amino)-1H-indole-5-carboxamide]: the EC50 in data set [2] is ≤ 100 nM; in [3], > 1000 nM; in data set [4] it was 100 to 1000 nM; in data set [5] it was 100 to 1000 nM; in data set [6], ≤ 300 nM; in [7], 100 to 1000 nM. For the same compound, the EC50 in data set [8], in data set [9] and in [10] was 100 to 1000 nM in each case.
In the case of `CCN(CC)C(=O)Cc1cc(NCc2ccccc2)c2[nH]c(-c3ccccc3)cc2c1` [Example 14, 2-(7-(benzylamino)-2-phenyl-1H-indol-5-yl)-N,N-diethylacetamide], the EC50 in data set [2] is ≤ 100 nM; in [3], 100 to 1000 nM; in [4], 100 to 1000 nM; in data set [5], ≤ 100 nM; in data set [6], 300 to 1000 nM; in [7] it was ≤ 100 nM. In addition, the EC50 in data set [8], in data set [9] and in data set [10] was ≤ 100 nM throughout.
For the compound `CCNS(=O)(=O)c1cc(NC2CCCC2)c2[nH]c(-c3ccccc3)cc2c1` [Example 22, 7-(cyclopentylamino)-N-ethyl-2-phenyl-1H-indole-5-sulfonamide], the EC50 is ≤ 100 nM in data set [2]; 100 to 1000 nM in [3]; 100 to 1000 nM in [4]; ≤ 100 nM in data set [5]; 300 to 1000 nM in data set [6]; 100 to 1000 nM in data set [7]. Moreover, the results for the EC50 in [8], in data set [9] and in [10] were ≤ 100 nM, 100 to 1000 nM and ≤ 100 nM, respectively.
In the case of `c1ccc(-c2cc3cc(COCCN4CCSCC4)cc(NC4CCOCC4)c3[nH]2)cc1` [Example 46, 2-phenyl-N-(tetrahydro-2H-pyran-4-yl)-5-((2-thiomorpholinoethoxy)methyl)-1H-indol-7-amine], the EC50 in [6] was ≤ 300 nM.
For `O=S1(=O)CCN(CCOCc2cc(NC3CCOCC3)c3[nH]c(-c4ccccc4)cc3c2)CC1` [Example 47, 4-(2-((2-phenyl-7-((tetrahydro-2H-pyran-4-yl)amino)-1H-indol-5-yl)methoxy)ethyl)thiomorpholine 1,1-dioxide], the EC50 in [6] was in the range of 300 to 1000 nM.
As to `OCCNCCOCc1cc(NC2CCOCC2)c2[nH]c(-c3ccccc3)cc2c1` [Example 48, 2-((2-((2-phenyl-7-((tetrahydro-2H-pyran-4-yl)amino)-1H-indol-5-yl)methoxy)ethyl)amino)ethan-1-ol], in [6], the EC50 was in the range of 300 to 1000 nM.
For `COCCNC(=O)c1cc(NC2CCOCC2)c2[nH]c(-c3ccccc3)cc2c1` [Example 49, N-(2-methoxyethyl)-2-phenyl-7-((tetrahydro-2H-pyran-4-yl)amino)-1H-indol-5-carboxamide], the EC50 in [6] is ≤ 300 nM.
On to `COCCNCc1cc(NC2CCOCC2)c2[nH]c(-c3ccccc3)cc2c1` [Example 50, 5-(((2-methoxyethyl)amino)methyl)-2-phenyl-N-(tetrahydro-2H-pyran-4-yl)-1H-indol-7-amine], for which the concentration for a half-maximal effect (EC50) in [6] was ≤ 300 nM.
`COCCN(C)C(=O)c1cc(NC2CCOCC2)c2[nH]c(-c3ccccc3)cc2c1` [Example 51, N-(2-methoxyethyl)-N-methyl-2-phenyl-7-((tetrahydro-2H-pyran-4-yl)amino)-1H-indole-5-carboxamide]: in data set [6], the EC50 is ≤ 300 nM.
In the case of `COCCOCCN(C)C(=O)c1cc(NC2CCOCC2)c2[nH]c(-c3ccccc3)cc2c1` [Example 52, N-(2-(2-methoxyethoxy)ethyl)-N-methyl-2-phenyl-7-((tetrahydro-2H-pyran-4-yl)amino)-1H-indole-5-carboxamide], in data set [6], the EC50 is > 1000 nM.
On to `CN(CCO)CCOCc1cc(NC2CCOCC2)c2[nH]c(-c3ccccc3)cc2c1` [Example 53, 2-(methyl(2-((2-phenyl-7-((tetrahydro-2H-pyran-4-yl)amino)-1H-indol-5-yl)methoxy)ethyl)amino)ethan-1-ol], for which, in data set [6], the EC50 is ≤ 300 nM.
Turning to `CN(CCOCCO)C(=O)c1cc(NC2CCOCC2)c2[nH]c(-c3ccccc3)cc2c1` [Example 54, N-(2-(2-hydroxyethoxy)ethyl)-N-methyl-2-phenyl-7-((tetrahydro-2H-pyran-4-yl)amino)-1H-indole-5-carboxamide], the EC50 in data set [6] was in the range of 300 to 1000 nM.
As to `COCCN(C)Cc1cc(NC2CCOCC2)c2[nH]c(-c3ccccc3)cc2c1` [Example 55, 5-(((2-methoxyethyl)(methyl)amino)methyl)-2-phenyl-N-(tetrahydro-2H-pyran-4-yl)-1H-indol-7-amine], in data set [6], the EC50 is ≤ 300 nM.
The same measure, in the same setting: with `COCCOCCNC(=O)c1cc(NC2CCOCC2)c2[nH]c(-c3ccccc3)cc2c1` [Example 56, N-(2-(2-methoxyethoxy)ethyl)-2-phenyl-7-((tetrahydro-2H-pyran-4-yl)amino)-1H-indole-5-carboxamide] the figure was 300 to 1000 nM; with `COCCOCCNCc1cc(NC2CCOCC2)c2[nH]c(-c3ccccc3)cc2c1` [Example 57, 5-(((2-(2-methoxyethoxy)ethyl)amino)methyl)-2-phenyl-N-(tetrahydro-2H-pyran-4-yl)-1H-indol-7-amine], ≤ 300 nM; with `COCCOCCN(C)Cc1cc(NC2CCOCC2)c2[nH]c(-c3ccccc3)cc2c1` [Example 58, 5-(((2-(2-methoxyethoxy)ethyl)(methyl)amino)methyl)-2-phenyl-N-(tetrahydro-2H-pyran-4-yl)-1H-indol-7-amine], ≤ 300 nM.
As to `CS(=O)(=O)NCCOCc1cc(NC2CCOCC2)c2[nH]c(-c3ccccc3)cc2c1` [Example 59, N-(2-((2-phenyl-7-((tetrahydro-2H-pyran-4-yl)amino)-1H-indol-5-yl)methoxy)ethyl)methanesulfonamide], the concentration giving a half-maximal response (EC50) in data set [6] was ≤ 300 nM.
For `COCCNCCOCc1cc(NC2CCOCC2)c2[nH]c(-c3ccccc3)cc2c1` [Example 60, 5-((2-((2-methoxyethyl)amino)ethoxy)methyl)-2-phenyl-N-(tetrahydro-2H-pyran-4-yl)-1H-indol-7-amine], the EC50 in [6] is ≤ 300 nM.
In the case of `COCCN(C)CCOCc1cc(NC2CCOCC2)c2[nH]c(-c3ccccc3)cc2c1` [Example 61, 5-((2-((2-methoxyethyl)(methyl)amino)ethoxy)methyl)-2-phenyl-N-(tetrahydro-2H-pyran-4-yl)-1H-indol-7-amine], the EC50 in data set [6] is ≤ 300 nM.

These data come from US20260159481A1, “INDOLE DERIVATIVE WITH SUBSTITUENT AND PHARMACEUTICAL USE” (MITOIMMUNE THERAPEUTICS INC., priority 2023, published 2026).
